Test results published in patent US20020169111A1, “Reversal of multidrug resistance in human colon carcinoma cells” (American Cyanamid Comany, priority 1998, published 2002).
Like-named read-outs stand apart in the source and are kept apart here.

Experiments:
S1-M1-3.2 cells [1] = assay: Cytotoxicity of antitumor agents, 3-day SRB assay, mitoxantrone-selected cells; type: cell-based, human; conditions: relative to S1; 2-7 independent experiments
Experimental: Cells were cultured for three days in the presence of the antitumor agent (triplicate points per dose). Following a 3-day growth period, cells were fixed in 10% trichloroacetic acid (TCA) for 1 hour, washed extensively with water, and cell-associated protein was stained using 0.1% sulforhodamine B (SRB), a protein binding reagent [Rubinstein et al., Journal of the National Cancer Institute 82, 1113-1118 (1990) and Skehan et al., Journal of the National Cancer Institute 82, 1107-1112 (1990)]. Excess reagent was removed by washing plates in 5% acetic acid, the dye was solubilized in 10 mM Tris base, and absorbance determined in a UV Max spectrophotometer (Molecular Devices, Menlo Park, Calif.) at 540 nm. Cell survival was estimated relative to control wells (no drugs). EC50 values (μM) were estimated from cytotoxicity curves. For S1, the values shown [mean ±SE (number of independent observations)] are taken from Zhang et al., “P-Glycoprotein Mediates Profound Resistance to Bisantrene,” Oncol. Res., 6:291-301, 1994. Values for S1-M1-3.2 are compiled from 2-7 independent experiments.

MCF 7/mtxR cells = type: cell-based, human
Experimental: (§1) Cell survival was estimated after 3 days using the SRB assay. Cell survival was determined by the SRB assay and EC50 values were determined from toxicity curves. The dose modifying factor (DMF) is the ratio of EC50 values obtained in the absence and presence of reversal agent. Maximum DMF values (shown in parentheses) is the ratio of EC50 values of resistant and sensitive cells in the absence of the reversal agent. This value is obtained when resistance is reversed completely, and is the equivalent of the relative resistance.
(§2) In order to determine the utility of FTC as a reversal agent in other multidrug resistant cell lines, FTC was tested in two breast cancer cell lines which show a multidrug resistant phenotype with no overexpression of P-gp or MRP.

S1 cells [2] = test system: S1 cells
Experimental: (§7) Cell-associated radioactivity was measured at the indicated times. Values are mean percentage of drug remaining (triplicate determinations) ± standard deviation.
(§8) After 1 hour, cells were prepared for analysis by scintillation counting. Values shown are mean percentage of drug remaining (triplicate determinations) ± standard deviation.

S1-M1-3.2 cells [3] = assay: Dose modifying factor of FTC (SRB, EC50 ratio); type: cell-based, human; conditions: S1-M1 versus S1, no reversal agent
Experimental: as §1

MCF-7/BCRP cells [4] = assay: Dose modifying factor of FTC in BCRP-transfected cells; type: cell-based, human; conditions: MCF-7/BCRP versus MCF-7, no reversal agent
Experimental: Cell survival was estimated after 3 days using the SRB assay, and EC50 values were determined from cytotoxicity curves.

S1-B1-20 cells [5] = test system: S1-B1-20 cells
Experimental: as §7, §8

S1-M1-3.2 cells [6] = test system: S1-M1-3.2 cells
Experimental: as §7, §8

HL-60/AR cells = type: cell-based
Experimental: as §1

S1 cells [7] = assay: Drug accumulation analysis with [14C] drug; type: cell-based, human; conditions: [14C] drug, 90 minutes at 37° C.
Experimental: (§3) To determine the mechanism of resistance, drug resistant and sensitive cells were incubated with radioactive analogues of antitumor agents and cell-associated radioactivity was measured by scintillation counting. Alternatively, surrogates of chemotherapeutic drugs may be used. The surrogate has no antitumor activity itself but interacts with the cancer cell proteins such as P-gp or MRP in a similar manner as an anticancer drug. The surrogate chemotherapeutic drug would have a property such as fluorescence which is useful for determining the drug resistance mechanisms such as efflux.
(§4) Cells were plated in 60 mm dishes (1×10^6 cells per dish) or in 24 well clusters (2 ×10^5 cells per well) and allowed to grow for 1-2 days. […] Drugs used were [^14C]-mitoxantrone (Amersham, 1 or 5 μM; specific activity 66 mCi/mmol) or [^14C]-doxorubicin (Amersham, 0.5 or 3 μM; specific activity 50-62 mCi/mmol ). […] Unbound drug was removed by washing twice in ice-cold phosphate buffered saline (PBS), cells were solubilized in 2 N NaOH at 37° C. for 1-2 hours, and analyzed by scintillation counting. Results were normalized to cell protein content measured by a Lowry assay.
(§5) The cells were then washed, solubilized, and counted in a scintillation counter. Values are mean disintegration per minute per μg protein of triplicate determinations ± standard deviation.

S1-M1-3.2 cells [8] = assay: Drug accumulation analysis with [14C] drug; type: cell-based, human; conditions: for Drug Accumulation, no FTC: S1-M1-3.2 cells, [14C] drug, 90 minutes at 37° C.; for drug accumulated compared with the parental cells: S1-M1-3.2 versus S1, no FTC
Experimental: as §3, §4, §5

S1-B1-20 cells [9] = assay: Drug accumulation analysis with [14C] drug; type: cell-based, human; conditions: [14C] drug, 90 minutes at 37° C.
Experimental: as §3, §4, §5

MCF 7/AdVp cells = type: cell-based, human
Experimental: as §1, §2

MCF-7 cells = type: cell-based, human; conditions: 1 μM daunorubicin, 1 hour retention phase
Experimental: (§6) All incubations were carried out in the absence or presence of FTC (1 or 5 μM).

MCF-7/BCRP cells [10] = type: cell-based, human
Experimental: as §6

MCF/MX cells = assay: Resistance of MCF/MX cells to camptothecins; type: cell-based
[11] = 1 hour efflux with energy depletor, growth medium = 100

## C(=N\NC1=NCCN1)/c1c2ccccc2c(/C=N/NC2=NCCN2)c2ccccc12 [bisantrene]
S1-M1-3.2 cells [1]
  S1-M1-3.2 (relative resistance): 24

## O=C1c2c(O)ccc(O)c2C(=O)c2c(NCCNCCO)ccc(NCCNCCO)c21 [mitoxantrone]
MCF 7/mtxR cells
  Maximum DMF (in parentheses; relative resistance to the antitumor agent): 114 (2090)
S1 cells [2]; 0 h
  % mitoxantrone remaining over time (hours): 100 ± 6%
S1 cells [2]; 0.5 h
  % mitoxantrone remaining over time (hours): 99 ± 17%
S1 cells [2]; 1 h
  % mitoxantrone remaining over time (hours): 101 ± 3%
S1 cells [2]; 2 h
  % mitoxantrone remaining over time (hours): 100 ± 11%
S1 cells [2]; 4 h
  % mitoxantrone remaining over time (hours): 95 ± 13%
S1-M1-3.2 cells [3]
  Maximum DMF (in parentheses; relative resistance to the antitumor agent): 1435
MCF-7/BCRP cells [4]
  Maximum DMF (in parentheses; relative resistance to the antitumor agent): 35.1
S1-B1-20 cells [5]; 0 h
  % mitoxantrone remaining over time (hours): 100 ± 5%
S1-B1-20 cells [5]; 0.5 h
  % mitoxantrone remaining over time (hours): 58 ± 4%
S1-B1-20 cells [5]; 1 h
  % mitoxantrone remaining over time (hours): 45 ± 10%
S1-B1-20 cells [5]; 2 h
  % mitoxantrone remaining over time (hours): 41 ± 3%
S1-B1-20 cells [5]; 4 h
  % mitoxantrone remaining over time (hours): 39 ± 3%
S1-M1-3.2 cells [1]
  S1-M1-3.2 (relative resistance): 1435
S1-M1-3.2 cells [6]; 0 h
  % mitoxantrone remaining over time (hours): 100 ± 2%
S1-M1-3.2 cells [6]; 0.5 h
  % mitoxantrone remaining over time (hours): 51 ± 6%
S1-M1-3.2 cells [6]; 1 h
  % mitoxantrone remaining over time (hours): 44 ± 1%
S1-M1-3.2 cells [6]; 2 h
  % mitoxantrone remaining over time (hours): 45 ± 3%
S1-M1-3.2 cells [6]; 4 h
  % mitoxantrone remaining over time (hours): 31 ± 2%
HL-60/AR cells
  Maximum DMF (in parentheses; relative resistance to the antitumor agent): 3.3 (53)
S1 cells [7]
  Drug Accumulation, no FTC: 2430 ± 252 DPM/μg protein
S1-M1-3.2 cells [8]
  Drug Accumulation, no FTC: 996 ± 57 DPM/μg protein
  drug accumulated compared with the parental cells: 41%
S1-B1-20 cells [9]
  Drug Accumulation, no FTC: 1086 ± 100 DPM/μg protein

## CC(=O)O[C@H]1C(=O)[C@@]2(C)[C@H]([C@H](OC(=O)c3ccccc3)[C@]3(O)C[C@H](OC(=O)[C@H](O)[C@@H](NC(=O)c4ccccc4)c4ccccc4)C(C)=C1C3(C)C)[C@]1(OC(C)=O)CO[C@@H]1C[C@@H]2O [paclitaxel, reference compound]
MCF 7/mtxR cells
  Maximum DMF (in parentheses; relative resistance to the antitumor agent): 1.1 (2.0)
MCF 7/AdVp cells
  Maximum DMF (in parentheses; relative resistance to the antitumor agent): 0.7 (10.7)
S1-M1-3.2 cells [3]
  Maximum DMF (in parentheses; relative resistance to the antitumor agent): 6
MCF-7/BCRP cells [4]
  Maximum DMF (in parentheses; relative resistance to the antitumor agent): 2.7
S1-M1-3.2 cells [1]
  S1-M1-3.2 (relative resistance): 6
HL-60/AR cells
  Maximum DMF (in parentheses; relative resistance to the antitumor agent): 2.6 (5.1)

## COc1cccc2c1C(=O)c1c(O)c3c(c(O)c1C2=O)C[C@@](O)(C(C)=O)C[C@@H]3O[C@H]1C[C@H](N)[C@H](O)[C@H](C)O1 [daunorubicin, reference compound]
MCF-7 cells
  daunorubicin retention, Channel Number (fluorescence units), No FTC: 15.2 ± 0.39 fluorescence units
MCF-7/BCRP cells [10]
  daunorubicin retention, Channel Number (fluorescence units), No FTC: 6.8 ± 0.33 fluorescence units

## COc1cc([C@@H]2c3cc4c(cc3[C@@H](O[C@@H]3O[C@@H]5CO[C@@H](c6cccs6)O[C@H]5[C@H](O)[C@H]3O)[C@H]3COC(=O)[C@H]23)OCO4)cc(OC)c1O [VM-26, teniposide]
S1-M1-3.2 cells [1]
  S1-M1-3.2 (relative resistance): 18

## COc1cc([C@@H]2c3cc4c(cc3[C@@H](O[C@@H]3O[C@@H]5CO[C@@H](C)O[C@H]5[C@H](O)[C@H]3O)[C@H]3COC(=O)[C@H]23)OCO4)cc(OC)c1O [etoposide]
S1-M1-3.2 cells [1]
  S1-M1-3.2 (relative resistance): 6

## [N-]=[N+]=[N-].[Na+] [PBS + sodium azide, sodium azide]
S1 cells [2]; [11]
  % mitoxantrone remaining in cell line: 137 ± 14%
S1-B1-20 cells [5]; [11]
  % mitoxantrone remaining in cell line: 217 ± 6%
S1-M1-3.2 cells [6]; [11]
  % mitoxantrone remaining in cell line: 285 ± 43%

## CC[C@@]1(O)C(=O)OCc2c1cc1n(c2=O)Cc2cc3c(N)cccc3nc2-1 [9-amino camptothecin]
MCF/MX cells
  resistance of MCF/MX cells: 120 fold

## COc1cccc2c1C(=O)c1c(O)c3c(c(O)c1C2=O)C[C@@](O)(C(=O)CO)C[C@@H]3O[C@H]1C[C@H](N)[C@H](O)[C@H](C)O1 [doxorubicin, reference compound]
MCF-7/BCRP cells [10]; MCF-7/BCRP, 1 μM [14C]-doxorubicin, 1 hour retention phase
  [^14C] doxorubicin retention, No FTC: 5.4 ± 0.48 DPM per microgram protein
S1 cells [7]
  Drug Accumulation, no FTC: 114 ± 11 DPM/μg protein
S1-M1-3.2 cells [8]
  Drug Accumulation, no FTC: 19 ± 3 DPM/μg protein
  drug accumulated compared with the parental cells: 17%
S1-B1-20 cells [9]
  Drug Accumulation, no FTC: 23 ± 1 DPM/μg protein

## COc1cc(NS(C)(=O)=O)ccc1Nc1c2ccccc2nc2ccccc12 [m-AMSA]
S1-M1-3.2 cells [1]
  S1-M1-3.2 (relative resistance): 11

## CC[C@@]1(O)C(=O)OCc2c1cc1n(c2=O)Cc2cc3ccccc3nc2-1 [camptothecin]
MCF/MX cells
  resistance of MCF/MX cells: 3.2 fold
S1-M1-3.2 cells [1]
  S1-M1-3.2 (relative resistance): 2

## CC[C@]1(O)C[C@@H]2CN(CCc3c([nH]c4ccccc34)[C@@](C(=O)OC)(c3cc4c(cc3OC)N(C)[C@H]3[C@@](O)(C(=O)OC)[C@H](OC(C)=O)[C@]5(CC)C=CCN6CC[C@]43[C@@H]65)C2)C1 [vinblastine]
S1-M1-3.2 cells [1]
  S1-M1-3.2 (relative resistance): 3

## CC[C@@]1(O)C(=O)OCc2c1cc1n(c2=O)Cc2cc3c(CN(C)C)c(O)ccc3nc2-1 [topotecan, reference compound]
S1-M1-3.2 cells [3]
  Maximum DMF (in parentheses; relative resistance to the antitumor agent): 41
MCF-7/BCRP cells [4]
  Maximum DMF (in parentheses; relative resistance to the antitumor agent): 3.3
S1-M1-3.2 cells [1]
  S1-M1-3.2 (relative resistance): 41
